Experimental data taken from patent US20080306284A1, “Lipase Inhibitors” (priority 2004, published 2008).
pIC50: −log10 of the molar value.

Biological target: T1, porcine pancreatic lipase (Sus scrofa, UniProt P00591)
T1 construct: purchased Sigma
T1 sequence (P00591 1-450): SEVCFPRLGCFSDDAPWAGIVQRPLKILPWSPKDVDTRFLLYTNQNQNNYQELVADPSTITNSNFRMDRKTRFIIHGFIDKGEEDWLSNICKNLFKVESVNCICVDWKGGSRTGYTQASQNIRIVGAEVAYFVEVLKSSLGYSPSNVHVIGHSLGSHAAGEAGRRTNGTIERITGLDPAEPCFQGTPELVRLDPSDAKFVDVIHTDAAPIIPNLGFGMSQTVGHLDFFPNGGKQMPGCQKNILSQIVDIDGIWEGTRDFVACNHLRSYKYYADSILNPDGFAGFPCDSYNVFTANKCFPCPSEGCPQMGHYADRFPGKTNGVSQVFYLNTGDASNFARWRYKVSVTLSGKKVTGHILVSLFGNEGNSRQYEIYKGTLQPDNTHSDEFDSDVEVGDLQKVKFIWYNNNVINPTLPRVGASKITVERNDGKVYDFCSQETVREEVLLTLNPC
Assay: Lipase inhibitory activity assay (4-MUO substrate, fluorescence)
Type: biochemical
Details: method of Example 1
Experimental: A lipase activity assay was performed by using the oleate ester of fluorescent 4-methylumbelliferone (4-MUO) as a substrate to measure the fluorescence of 4-methylumbelliferone produced by reaction.
The buffer used for the assay was 13 mM Tris-HCl (pH 8.0) containing 150 mM NaCl, 1.36 mM CaCl2. The enzyme assay was performed using a 0.1 M solution of the substrate 4-MUO (Sigma) in DMSO diluted 1:1000 in said buffer and a solution of porcine pancreatic lipase (Sigma) prepared at 400 U/ml also in said buffer.
An enzymatic reaction was started by adding 25 μl of the lipase/buffer solution after 50 μl of the 4-MUO/buffer solution and 25 μl of distilled water (or an aqueous solution of each sample) were added and mixed in a 96-well microplate at 25° C. After the reaction was performed for 30 minutes, the reaction was stopped by adding 100 μl of a 0.1 M citrate buffer (pH 4.2) and the fluorescence of 4-methylumbelliferone produced by the reaction (excitation 355 nm, emission 460 nm) was measured using a fluorescence plate reader (Fluoroskan Asent CF from Labsystems).
The inhibitory activity of each test sample was determined as IC50(μM), i.e. the amount of the sample giving 50% inhibition of the activity of the control (distilled water).

Row | Compound | lipase inhibitory activity (in words)
1 | (−)-epigallocatechin 3-O-gallate [(−)-epigallocatechin 3-O-gallate (4), reference compound] | strongest activity among the major catechins

Same assay, conditions: porcine pancreatic lipase, 4-MUO substrate, 25° C., 30 minutes, pH 8.0

Row | Compound | pIC50
2 | Oc1cc(O)c2c(c1)OC(c1ccc(O)c(O)c1)C(O)C2 (single isomer, unassigned; (+)) [(+)-catechin (5), (+)-catechin, reference compound] | < 3.16
3 | Oc1cc(O)c2c(c1)O[C@H](c1ccc(O)c(O)c1)[C@@H](O)[C@@H]2c1c(O)cc(O)c2c1O[C@H](c1cc(O)c(O)c(O)c1)[C@H](O)C2 [(+)-catechin (4α − 8) (−)-epigallocatechin] | 5.10
4 | O=C(O[C@@H]1Cc2c(O)cc(O)c([C@@H]3c4c(O)cc(O)cc4O[C@H](c4ccc(O)c(O)c4)[C@H]3O)c2O[C@@H]1c1cc(O)c(O)c(O)c1)c1cc(O)c(O)c(O)c1 [(+)-catechin (α + 8) (−)-epigallocatechin 3-O-gallate] | 6.76
5 | Oc1cc(O)c2c(c1)O[C@H](c1cc(O)c(O)c(O)c1)[C@@H](O)[C@@H]2c1c(O)cc(O)c2c1O[C@H](c1ccc(O)c(O)c1)[C@H](O)C2 [(+)-gallocatechin (4α − 8) (−)-epicatechin] | 5.54
6 | Oc1cc(O)c2c(c1)O[C@H](c1cc(O)c(O)c(O)c1)[C@@H](O)C2 [(+)-gallocatechin (7), (+)-gallocatechin, reference compound] | < 3.79
7 | O=C(O[C@@H]1Cc2c(O)cc(O)cc2O[C@H]1c1ccc(O)c(O)c1)c1cc(O)c(O)c(O)c1 [(−)-catechin 3-O-gallate (6), (−)-catechin 3-O-gallate, reference compound] | 6.07
8 | O=C(O[C@@H]1[C@@H](c2c(O)cc(O)c3c2O[C@H](c2cc(O)c(O)c(O)c2)[C@H](OC(=O)c2cc(O)c(O)c(O)c2)C3)c2c(O)cc(O)cc2O[C@@H]1c1ccc(O)c(O)c1)c1cc(O)c(O)c(O)c1 [(−)-epicatechin 3-O-gallate (4β − 8) (−)-epigallocatechin 3-O-gallate] | 6.07
9 | Oc1cc(O)c2c(c1)O[C@H](c1ccc(O)c(O)c1)[C@H](O)C2 [(−)-epicatechin (1), (−)-epicatechin, reference compound] | < 4.67
10 | O=C(O[C@@H]1Cc2c(O)cc(O)c([C@H]3c4c(O)cc(O)cc4O[C@H](c4ccc(O)c(O)c4)[C@@H]3O)c2O[C@@H]1c1cc(O)c(O)c(O)c1)c1cc(O)c(O)c(O)c1 [(−)-epicatechin (4β − 8) (−)-epigallocatechin 3-O-gallate] | 6.83
11 | O=C(O[C@@H]1[C@@H](c2c(O)cc(O)c3c2O[C@H](c2ccc(O)c(O)c2)[C@H](OC(=O)c2cc(O)c(O)c(O)c2)C3)c2c(O)cc(O)cc2O[C@@H]1c1cc(O)c(O)c(O)c1)c1cc(O)c(O)c(O)c1 [(−)-epigallocatechin 3-O-gallate (4β − 8) (−)-epicatechin 3-O-gallate] | 6.21
12 | Oc1cc(O)c2c(c1)O[C@H](c1cc(O)c(O)c(O)c1)[C@H](O)C2 [(−)-epigallocatechin (3), (−)-epigallocatechin, reference compound] | < 4.69
13 | O=C(O[C@@H]1Cc2c(O)cc(O)c([C@H]3c4c(O)cc(O)cc4O[C@H](c4cc(O)c(O)c(O)c4)[C@@H]3O)c2O[C@@H]1c1ccc(O)c(O)c1)c1cc(O)c(O)c(O)c1 [(−)-epigallocatechin (4β − 8) (−)-epicatechin 3-O-gallate] | 6.04
14 | O=C(O[C@@H]1Cc2c(O)cc(O)cc2O[C@H]1c1cc(O)c(O)c(O)c1)c1cc(O)c(O)c(O)c1 [(−)-gallocatechin 3-O-gallate (8), (−)-gallocatechin 3-O-gallate, reference compound] | 6.46
15 | Oc1cc(O)c2c(c1)O[C@H](c1ccc(O)c(O)c1)[C@H](O)[C@H]2c1c(O)cc(O)c2c1O[C@H](c1ccc(O)c(O)c1)[C@H](O)C2 [procyanidin B-2 (9), procyanidin B-2] | 5.10
16 | Oc1cc(O)c2c(c1)O[C@H](c1ccc(O)c(O)c1)[C@@H](O)[C@@H]2c1c(O)cc(O)c2c1O[C@H](c1ccc(O)c(O)c1)[C@@H](O)C2 [procyanidin B-3 (10), procyanidin B-3] | 5.53
17 | O=C(O[C@@H]1Cc2c(O)cc3c(c2O[C@@H]1c1cc(O)c(O)c(O)c1)[C@H]1c2c(O)cc(O)cc2O[C@@](c2cc(O)c(O)c(O)c2)(O3)[C@@H]1O)c1cc(O)c(O)c(O)c1 [prodelphinidin A-2 3′-O-gallate (11), prodelphinidin A-2 3′-O-gallate] | 6.77
18 | O=C(O[C@@H]1[C@@H](c2c(O)cc(O)c3c2O[C@H](c2cc(O)c(O)c(O)c2)[C@H](OC(=O)c2cc(O)c(O)c(O)c2)C3)c2c(O)cc(O)cc2O[C@@H]1c1cc(O)c(O)c(O)c1)c1cc(O)c(O)c(O)c1 [prodelphinidin B-2 3,3′-di-O-gallate] | 6.97
19 | O=C(OC1Cc2c(O)cc(O)c(C3c4c(O)cc(O)cc4OC(c4cc(O)c(O)c(O)c4)C3O)c2OC1c1cc(O)c(O)c(O)c1)c1cc(O)c(O)c(O)c1 (stereo not drawn) [prodelphinidin B-2 3′-O-gallate (13), prodelphinidin B-2 3′-O-gallate] | 5.71
20 | Oc1cc(O)c2c(c1)O[C@H](c1cc(O)c(O)c(O)c1)[C@H](O)[C@H]2c1c(O)cc(O)c2c1O[C@H](c1cc(O)c(O)c(O)c1)[C@H](O)C2 [prodelphinidin B-2 (12), prodelphinidin B-2] | 5.53
21 | O=C(O[C@@H]1Cc2c(O)cc(O)c([C@@H]3c4c(O)cc(O)cc4O[C@H](c4cc(O)c(O)c(O)c4)[C@H]3O)c2O[C@@H]1c1cc(O)c(O)c(O)c1)c1cc(O)c(O)c(O)c1 [prodelphinidin B-4 3′-O-gallate (16), prodelphinidin B-4 3′-O-gallate] | 6.65
22 | Oc1cc(O)c2c(c1)O[C@H](c1cc(O)c(O)c(O)c1)[C@@H](O)[C@@H]2c1c(O)cc(O)c2c1O[C@H](c1cc(O)c(O)c(O)c1)[C@H](O)C2 [prodelphinidin B-4 (15), prodelphinidin B-4] | 5.21
23 | (−)-epicatechin 3-O-gallate [(−)-epicatechin 3-O-gallate (2), reference compound] | 6.57
24 | (−)-epigallocatechin 3-O-gallate [(−)-epigallocatechin 3-O-gallate (4), reference compound] | 6.55
25 | prodelphinidin B-5 3,3′-di-O-gallate | 6.25

Test system: not given
Assay: not given
Details: reported in the literature; cited from earlier work

Row | Compound | adverse side effects
26 | OC1(c2ccc(Cl)cc2)c2ccccc2C2=NCCN21 (stereo not drawn) [Mazindol] | dry mouth, constipation, stomach discomfort and nausea/vomiting
27 | CCCCCCCCCCC[C@@H](C[C@@H]1OC(=O)[C@H]1CCCCCC)OC(=O)[C@H](CC(C)C)NC=O [Xenical] | fatty stools, increased stool frequency, loose stools, diarrhea and abdominal pain
